This note sets out measurements from patent publication US8716292B2, “Riminophenazines with 2-(heteroaryl)amino substituents and their anti-microbial activity” (priority 2010, dated 2014).

The assay has as its system Mycobacterium tuberculosis H37Rv strains. The assay is described as follows: In vitro assay for antimicrobial susceptibility (microplate Alamar blue MIC). To be noted: Mycobacterium tuberculosis, H37RV, read-out: MIC (μg/mL) against H37Rv. Type of assay: cell-based. (In general: The colour change of resazurin is a common sign of viable cells or microbes.)
[1] abbreviates: 7H9, Alamar blue, inhibition ≧90%.
The mark [2] stands for this setting: in vitro, Mycobacterium tuberculosis H37Rv strains.

Values after ≈ are worked out from the molar mass of the structure shown. Where two headings read alike, the source gives them in different places.

For the molecule `COC1CCC(/N=c2\cc3n(-c4ccc(F)cc4)c4ccccc4nc-3cc2Nc2ncccc2C#N)CC1` (centres unmarked) [TBI-1082, 5-(4-Fluorophenyl)-3-(4-methoxycyclohexyl)imino-2-(3-cyano-2-pyridyl)amino-3,5-dihydrophenazine], under setting [1], the MIC came out at 0.029 µg/mL (≈ 0.0559 µM).
Turning to `COc1ccc(Nc2cc3nc4ccccc4n(-c4ccc(C)cc4)c-3c/c2=N\C2CCOCC2)cn1` [TBI-360, 5-(4-Methylphenyl)-3-(4-tetrahydropyranyl)imino-2-(6-methoxy-3-pyridyl)amino-3,5-dihydrophenazine], the MIC under setting [2] is 0.2 µg/mL (≈ 0.407 µM).
As for `COc1ncccc1Nc1cc2nc3cc(C#N)ccc3n(-c3ccc(F)cc3)c-2c/c1=N\C1CCOCC1` [TBI-1066, 8-Cyano-5-(4-fluorophenyl)-3-(4-tetrahydropyranyl)imino-2-(2-methoxy-3-pyridyl)amino-3,5-dihydrophenazine], under setting [2], the MIC was over 6.64 µg/mL.
For `COc1ncccc1Nc1cc2nc3ccccc3n(-c3ccc(F)cc3)c-2c/c1=N\C1CCC1` [TBI-1016, 5-(4-Fluorophenyl)-3-cyclobutylimino-2-(2-methoxy-3-pyridyl)amino-3,5-dihydrophenazine], the MIC under setting [2] came out at 0.037 µg/mL (≈ 0.0795 µM).
As to `Fc1ccc(-n2c3c/c(=N\C4CCOCC4)c(Nc4cccnc4)cc-3nc3ccccc32)cc1` [TBI-681, 5-(4-Fluorophenyl)-3-(4-tetrahydropyranyl)imino-2-(3-pyridyl)amino-3,5-dihydrophenazine], the MIC under setting [2] worked out at 0.06 µg/mL (≈ 0.129 µM).
Still for that read-out and setting: as for `CC(=O)Nc1ccc(Nc2cc3nc4ccccc4n(-c4ccc(F)cc4)c-3c/c2=N\[C@H]2CC[C@H](O)CC2)cn1` [TBI-917, 5-(4-Fluorophenyl)-3-(1′,4′-trans-4-hydroxycyclohexyl)imino-2-(6-acetamino-3-pyridyl)amino-3,5-dihydrophenazine], the figure is 1 µg/mL (≈ 1.86 µM).
Consider `Clc1ccc(-n2c3c/c(=N\C4CCOCC4)c(Nc4cncc(Br)c4)cc-3nc3ccccc32)cc1` [TBI-880, 5-(4-Chlorophenyl)-3-(4-tetrahydropyranyl)imino-2-(5-bromo-3-pyridyl)amino-3,5-dihydrophenazine], for which the MIC under setting [2] turned out to be 0.036 µg/mL (≈ 0.0642 µM).
In the case of `COC1CCC(/N=c2\cc3n(-c4ccc(Br)cc4)c4ccccc4nc-3cc2Nc2cccnc2C)CC1` (centres unmarked) [TBI-509, 5-(4-Bromophenyl)-3-(4-methoxycyclohexyl)imino-2-(2-methyl-3-pyridyl)amino-3,5-dihydrophenazine], the MIC under setting [2] is 0.015 µg/mL (≈ 0.0264 µM).
On to `Cc1ccc(Nc2cc3nc4ccccc4n(-c4ccc(C(F)(F)F)cc4)c-3c/c2=N\C2CCOCC2)cn1` [TBI-696, 5-(4-Trifluoromethylphenyl)-3-(4-tetrahydropyranyl)imino-2-(6-methyl-3-pyridyl)amino-3,5-dihydrophenazine], for which the MIC under setting [2] came out at 0.032 µg/mL (≈ 0.0604 µM).
Still for that read-out and setting: as for `Cc1ncccc1Nc1cc2nc3ccccc3n(-c3cccc(OC(F)(F)F)c3)c-2c/c1=N\C1CCCCC1` [TBI-1034, 5-(3-Trifluoromethoxyphenyl)-3-cyclohexylimino-2-(2-methyl-3-pyridyl)amino-3,5-dihydrophenazine], the figure is 0.059 µg/mL (≈ 0.109 µM); as for `Cc1ccc(Nc2cc3nc4ccccc4n(-c4ccc(Cl)c(Cl)c4)c-3c/c2=N\C2CCC2)cn1` [TBI-948, 5-(3,4-Dichlorophenyl)-3-cyclobutylimino-2-(6-methyl-3-pyridyl)amino-3,5-dihydrophenazine], 0.125 µg/mL (≈ 0.25 µM).
Turning to `COC1CCC(/N=c2\cc3n(-c4ccc(C(F)(F)F)cc4)c4ccccc4nc-3cc2Nc2ccc(C)nc2)CC1` (centres unmarked) [TBI-695, 5-(4-Trifluoromethylphenyl)-3-(4-methoxycyclohexyl)imino-2-(6-methyl-3-pyridyl)amino-3,5-dihydrophenazine], under setting [2], the MIC turned out to be 0.016 µg/mL (≈ 0.0287 µM).
On the same count and under the same terms, as for `COCC(COC)/N=c1\cc2n(-c3ccc(Cl)cc3)c3ccccc3nc-2cc1Nc1cccnc1OC` [TBI-871, 5-(4-Chlorophenyl)-3-(1,3-dimethoxyisopropyl)imino-2-(2-methoxy-3-pyridyl)amino-3,5-dihydrophenazine], the figure is 0.03 µg/mL (≈ 0.0566 µM); as for `COCC(COC)/N=c1\cc2n(-c3ccc(F)cc3)c3ccccc3nc-2cc1Nc1cccnc1OC` [TBI-1048, 5-(4-Fluorophenyl)-3-(1,3-dimethoxyisopropyl)imino-2-(2-methoxy-3-pyridyl)amino-3,5-dihydrophenazine], 0.226 µg/mL (≈ 0.44 µM); as for `Cc1cncc(Nc2cc3nc4ccccc4n(-c4ccc(C(F)(F)F)cc4)c-3c/c2=N\C2CCCCC2)c1` [TBI-722, 5-(4-Trifluoromethylphenyl)-3-cyclohexylimino-2-(5-methyl-3-pyridyl)amino-3,5-dihydrophenazine], 0.031 µg/mL (≈ 0.0588 µM).
On to `Cc1ccc(Nc2cc3nc4ccc(F)cc4n(-c4ccc(OC(F)(F)F)cc4)c-3c/c2=N\C2CCCCC2)cn1` [TBI-853, 7-Fluoro-5-(4-trifluoromethoxyphenyl)-3-cyclohexylimino-2-(6-methyl-3-pyridyl)amino-3,5-dihydrophenazine], for which, under setting [2], the MIC is 0.025 µg/mL (≈ 0.0445 µM).
Turning to `Clc1ccc(-n2c3c/c(=N\C4CCCCC4)c(Nc4cncnc4)cc-3nc3ccccc32)cc1` [TBI-961, 5-(4-Chlorophenyl)-3-cyclohexylimino-2-(pyrimidin-5-yl)amino-3,5-dihydrophenazine], the MIC under setting [1] was 0.015 µg/mL (≈ 0.0312 µM).
Take `Cc1ccc(-n2c3c/c(=N\C4CCCCC4)c(Nc4cccnc4C)cc-3nc3ccccc32)cc1` [TBI-312, 5-(4-Methylphenyl)-3-cyclohexylimino-2-(2-methyl-3-pyridyl)amino-3,5-dihydrophenazine]: the MIC under setting [2] is 0.053 µg/mL (≈ 0.112 µM).
Consider `COc1ncccc1Nc1cc2nc3ccccc3n(-c3ccc(C)cc3)c-2c/c1=N\C1CCN(C)CC1` [TBI-313, 5-(4-Methylphenyl)-3-(N-methyl-4-piperidyl)imino-2-(2-methoxy-3-pyridyl)amino-3,5-dihydrophenazine], for which, under setting [2], the MIC was determined as 0.016 µg/mL (≈ 0.0317 µM).
On the same count and under the same terms, in the case of `CC(C)/N=c1\cc2n(-c3ccccc3)c3ccccc3nc-2cc1Nc1cccnc1` [TBI-054, 5-Phenyl-3-(1-methyethyl)imino-2-(3-pyridyl)amino-3,5-dihydrophenazine] it was 0.03 µg/mL (≈ 0.074 µM).
On to `CC(C)/N=c1\cc2n(-c3ccccc3Cl)c3ccccc3nc-2cc1Nc1cccnc1` [TBI-890, 5-(2-Chlorophenyl)-3-(1-methylethyl)imino-2-(3-pyridyl)amino-3,5-dihydrophenazine], for which, under setting [2], the MIC turned out to be 0.476 µg/mL (≈ 1.08 µM).
Consider `Brc1ccc(-n2c3c/c(=N\C4CC4)c(Nc4cccnc4)cc-3nc3ccccc32)cc1` [TBI-090, 5-(4-Bromophenyl)-3-cyclopropylimino-2-(3-pyridyl)amino-3,5-dihydrophenazine], for which the MIC under setting [2] came out at 0.016 µg/mL (≈ 0.0332 µM).
Turning to `CC(C)/N=c1\cc2n(-c3ccc(Cl)cc3Cl)c3ccccc3nc-2cc1Nc1cccnc1` [TBI-363, 5-(2,4-Dichlorophenyl)-3-(1-methylethyl)imino-2-(3-pyridyl)amino-3,5-dihydrophenazine], under setting [2], the MIC was found to be 0.03 µg/mL (≈ 0.0632 µM).
Take `COc1ncccc1Nc1cc2nc3ccccc3n(-c3ccc(Cl)cc3Cl)c-2c/c1=N\C1CCC1` [TBI-893, 5-(2,4-Dichlorophenyl)-3-cyclobutylimino-2-(2-methoxy-3-pyridyl)amino-3,5-dihydrophenazine]: the MIC under setting [2] was found to be 0.06 µg/mL (≈ 0.116 µM).
As for `CC(C)/N=c1\cc2n(-c3ccc(F)cc3)c3ccccc3nc-2cc1Nc1cnccn1` [TBI-1055, 5-(4-Fluorophenyl)-3-(1-methylethyl)imino-2-(pyrazin-2-yl)amino-3,5-dihydrophenazine], the MIC under setting [1] worked out at 0.022 µg/mL (≈ 0.0518 µM).
Take `Cc1ccc(Nc2cc3nc4ccccc4n(-c4ccc(F)cc4)c-3c/c2=N\C2CCC2)cn1` [TBI-1017]: the MIC under setting [2] worked out at 0.056 µg/mL (≈ 0.125 µM).
Consider `Cc1ccc(Nc2cc3nc4ccccc4n(-c4ccc(F)cc4)c-3c/c2=N\C2CCCCC2)cn1` [TBI-905, 5-(4-Fluorophenyl)-3-cyclohexylimino-2-(6-methyl-3-pyridyl)amino-3,5-dihydrophenazine], for which the MIC under setting [2] is 0.057 µg/mL (≈ 0.119 µM).
`COc1ccc(Nc2cc3nc4ccccc4n(-c4ccccc4)c-3c/c2=N\C(C)C)cn1` [TBI-510, 5-Phenyl-3-(1-methylethyl)imino-2-(6-methoxy-3-pyridyl)amino-3,5-dihydrophenazine]: the MIC under setting [2] was found to be 0.5 µg/mL (≈ 1.15 µM).
As for `Cc1ccc(-n2c3c/c(=N\C4CCN(C)CC4)c(Nc4cccnc4)cc-3nc3ccccc32)cc1` [TBI-304, 5-(4-Methylphenyl)-3-(N-methyl-4-piperidyl)imino-2-(3-pyridinyl)amino-3,5-dihydro-phenazine], the MIC under setting [2] is 0.25 µg/mL (≈ 0.527 µM).
Still for that read-out and setting: in the case of `COc1ncccc1Nc1cc2nc3ccccc3n(-c3ccc(F)cc3)c-2c/c1=N\C1CCN(C)CC1` [TBI-1005, 5-(4-Fluorophenyl)-3-(N-methyl-4-piperidyl)imino-2-(2-methoxy-3-pyridyl)amino-3,5-dihydrophenazine] it was 0.213 µg/mL (≈ 0.419 µM).
As to `CC(C)/N=c1\cc2n(-c3ccc(F)c(F)c3)c3ccccc3nc-2cc1Nc1cnccn1` [TBI-1446, 5-(3,4-Difluorophenyl)-3-(1-methylethyl)imino-2-(pyrazin-2-yl)amino-3,5-dihydrophenazine], the MIC under setting [1] is 0.03 µg/mL (≈ 0.0678 µM).
Turning to `COC1CCC(/N=c2\cc3n(-c4ccc(F)cc4)c4ccccc4nc-3cc2Nc2ncccn2)CC1` (centres unmarked) [TBI-1080, 5-(4-Fluorophenyl)-3-(4-methoxycyclohexyl)imino-2-(pyrimidin-2-yl)amino-3,5-dihydrophenazine], the MIC under setting [1] was found to be 0.029 µg/mL (≈ 0.0586 µM).
Regarding `Cc1ncccc1Nc1cc2nc3ccccc3n(-c3ccc(F)cc3)c-2c/c1=N\C1CCSCC1` [TBI-1043, 5-(4-Fluorophenyl)-3-(4-tetrahydrothiopyranyl)imino-2-(2-methyl-3-pyridyl)amino-3,5-dihydrophenazine], under setting [2], the MIC turned out to be 0.021 µg/mL (≈ 0.0424 µM).
Still for that read-out and setting: in the case of `Cc1ccc(-n2c3c/c(=N\C4CCOCC4)c(Nc4ccc(C)nc4)cc-3nc3ccccc32)cc1` [TBI-317, 5-(4-Methylphenyl)-3-(4-tetrahydropyranyl)imino-2-(6-methyl-3-pyridyl)amino-3,5-dihydrophenazine] it was 0.055 µg/mL (≈ 0.116 µM).
Take `COc1ncccc1Nc1cc2nc3ccccc3n(-c3ccc(OC(F)(F)F)cc3)c-2c/c1=N\C1CCN(CC(C)C)CC1` [TBI-165, 5-(4-Trifluoromethoxyphenyl)-3-(N-isobutyl-4-piperidyl)imino-2-(2-methoxy-3-pyridyl)amino-3,5-dihydrophenazine]: the MIC under setting [2] was 0.016 µg/mL (≈ 0.0259 µM).
